Experimental data from PMC6270994, “The Hydractinia echinata Test-System. III: Structure-Toxicity Relationship Study of Some Azo-, Azo-Anilide, and Diazonium Salt Derivatives” (Molecules, 2014).

These compounds were tested on Hydractinia echinata (assay: Hydractinia echinata test system (HeTS): reduction of Cs+-induced metamorphosis of larvae). Conditions: Hydractinia echinata, read-out: F(1), F(2),... individual log(1/MRC50) toxicity value (converted).
Format: in vivo
Method: The average (C) concentrations of these values were calculated too. The MRC50 value calculations (Chicu et al.) result from the graphical representation of the metamorphosis variation, M (%), (Y axis) function of the xenobiotic’s concentration (mol/L) (X axis), where the metamorphosis decreases with the rise of the xenobiotic’s concentration. Thus, the MRC50 value represents the xenobiotic’s concentration (mol/L) necessary for a 50% decrease of metamorphosis, with respect to control.
For each concentration of substance experiments were performed in triplicate and were repeated at least twice.
Colonies of H. echinata (Biologische Anstalt, Helgoland, Germany) were used to obtain eggs and larvae. The culture medium was artificial seawater (980 mosmol, pH 8.2, 18 °C). In laboratory an artificial metamorphosis can be synchronically started by the introduction of Cs^+ ions or by using seawater without Mg^2+ ions; it then lasts only 24 h. Under the action of external stimulus of Cs^+ ions or Cs^+ ions together with the tested compounds, one part of larvae further lives as such and another one is metamorphosized to the polyp form. The evaluation of the influence of the tested substance is very clear this way, the proposed method being based on this aspect.
H. echinata larvae were exposed to seawater containing Cs^+ and simultaneously one of the test substances for 3 h. The percentage of animals that underwent metamorphosis (development into polyps) was determined after 24 h. […] We chose a concentration of inducers which caused about […] to three quarters of the larvae to metamorphose in order to have conditions which are highly sensitive against an inhibitory influence. […] This concentration was termed MRC50 (for Metamorphosis Reduction Concentration) and is similar to the effective EC50 concentration that gives half maximal effective response.
`Nc1ccc(C(=O)O)c(O)c1` [Ac p-AmS, p-aminosalicylic acid] was tested, and the EC50 was 1070 µM.

Same assay, conditions: Hydractinia echinata; MRC50 in mol/L = concentration for 50% decrease of metamorphosis vs control; larvae exposed 3 h with Cs+, read after 24 h; read-out: M: experimental Mlog(1/MRC50) (converted)
Compound `COc1ccc(N=Nc2ccccc2)cc1` [Compound 1, (4-Methoxyphenyl) (phenyl)diazene] has an EC50 of 6.31 µM.
`O=C(O)c1ccc(N=Nc2ccccc2)cc1` [Compound 2, 4-(2-Phenyldiazen-1-yl)benzoic acid] was tested, and the EC50 was 214 µM.
For `CN(C)c1ccc(/N=N/c2ccccc2C(=O)O)cc1` [Compound 3, Methyl Red], the EC50 was 209 µM.
With `Nc1ccc(/N=N/c2ccccc2C(=O)O)cc1C(=O)O` [Compound 5, 2-Amino-5-[(E)-2-(2-carboxyphenyl)diazen-1-yl]benzoic acid] the EC50 was 26.3 µM.
For `CCN(CC)c1ccc(N=Nc2ccc(C(=O)O)cc2)cc1` [Compound 6, 4-{2-[4-(Diethylamino)phenyl]diazen-1-yl}benzoic acid], the EC50 was 17 µM.
Compound `O=C(O)c1ccc(N=Nc2ccc(O)cc2)cc1` [Compound 7, 4-[2-(4-Hydroxyphenyl)diazen-1-yl]benzoic acid] has an EC50 of 479 µM.
With `O=C(O)c1ccc(/N=N/c2ccc(O)cc2O)cc1` [Compound 8, 4-[(E)-2-(2,4-dihydroxy-phenyl)diazen-1-yl]benzoic acid] the EC50 was 490 µM.
`O=C(O)c1ccc(N=Nc2ccc(O)c(C(=O)O)c2)cc1` [Compound 9, 5-[2-(4-Carboxyphenyl)diazen-1-yl]-2-hydroxybenzoic acid] was tested, and the EC50 was 447 µM.
For `Cc1ccc(N=Nc2ccc([N+](=O)[O-])cc2)c(O)c1` [Compound 20, 5-Methyl-2-[2-(4-nitrophenyl)-diazen-1-yl]phenol], the EC50 was 77.6 µM.
`O=S(=O)(O)c1ccc(O)c(/N=N/c2ccc(O)cc2O)c1` [Compound 21, 3-[(E)-2-(2,4-dihydroxyphenyl)-diazen-1-yl]-4-hydroxybenzene-1-sulfonic acid] showed an EC50 of 53.7 µM.
Work on `O=C(O)c1ccc(N=Nc2c(O)ccc3ccccc23)cc1` [Compound 23, 4-[2-(2-Hydroxynaphthalen-1-yl)diazen-1-yl]benzoic acid] yielded an EC50 of 245 µM.
Work on `O=C(O)c1ccc(N=Nc2c(O)c(C(=O)O)cc3ccccc23)cc1` [Compound 25, 4-[2-(4-Carboxyphenyl)diazen-1-yl]-3-hydroxynaphthalene-2-carboxylic acid] yielded an EC50 of 355 µM.
`Nc1c(N=Nc2ccc(C(=O)O)cc2)ccc2ccccc12` [Compound 26, 4-[2-(1-Aminonaphthalen-2-yl)diazen-1-yl]benzoic acid] was tested, and the EC50 was 18.6 µM.
With `O=S(=O)(O)c1cc(S(=O)(=O)O)c2c(/N=N/c3ccccc3)c(O)ccc2c1` [Compound 39, Acid Orange 10 (Orange G)] the EC50 was 457 µM.
Compound `Nc1c(/N=N/c2ccc(-c3ccc(/N=N/c4cc(S(=O)(=O)O)c5ccccc5c4N)cc3)cc2)cc(S(=O)(=O)O)c2ccccc12` [Compound 82, Congo Red] has an EC50 of 32.4 µM.

Same assay, conditions: Hydractinia echinata; parent dye, Table 2; read-out: F(1+2+...)e experimental toxicity log(1/MRC50) (converted)
`COc1ccc(N=Nc2ccccc2)cc1` [Compound 1, (4-Methoxyphenyl) (phenyl)diazene] showed an EC50 of 6.31 µM.
`O=C(O)c1ccc(N=Nc2ccccc2)cc1` [Compound 2, 4-(2-Phenyldiazen-1-yl)benzoic acid] showed an EC50 of 214 µM.
With `O=C(O)c1ccc(N=Nc2ccc(O)cc2)cc1` [Compound 7, 4-[2-(4-Hydroxyphenyl)diazen-1-yl]benzoic acid] the EC50 was 479 µM.
In the case of `O=C(O)c1ccc(/N=N/c2ccc(O)cc2O)cc1` [Compound 8, 4-[(E)-2-(2,4-dihydroxy-phenyl)diazen-1-yl]benzoic acid], the EC50 is reported as 490 µM.
`O=C(O)c1ccc(N=Nc2ccc(O)c(C(=O)O)c2)cc1` [Compound 9, 5-[2-(4-Carboxyphenyl)diazen-1-yl]-2-hydroxybenzoic acid] showed an EC50 of 447 µM.
With `Cc1ccc(N=Nc2ccc([N+](=O)[O-])cc2)c(O)c1` [Compound 20, 5-Methyl-2-[2-(4-nitrophenyl)-diazen-1-yl]phenol] the EC50 was 77.6 µM.

Same assay, conditions: Hydractinia echinata; product of enzymatic reduction/hydrolysis of the dye; read-out: F(1), F(2),... individual log(1/MRC50) toxicity value (converted)
Compound `Nc1ccc(O)cc1O` [2,4-DHA, 2,4-dihydroxyaniline] has an EC50 of 0.55 µM.
`Nc1ccc(C(=O)O)cc1` [APAB, p-aminobenzoic acid] was tested, and the EC50 was 457 µM.

Same assay, conditions: MRC50 in mol/L = concentration for 50% decrease of metamorphosis vs control; larvae exposed 3 h with Cs+, read after 24 h
For `CN(C)c1ccc(N=Nc2ccccc2C(=O)[O-])cc1.[Na+]` [Compound 4, Methyl Red (sodium salt)], the “M: experimental Mlog(1/MRC50)” value was 3.79.
`O=S(=O)([O-])c1cccc(N=Nc2ccc(Nc3ccccc3)cc2)c1.[Na+]` [Compound 12, Metanil Yellow (sodium salt)] was tested, and the “M: experimental Mlog(1/MRC50)” value was 4.17.
In the case of `CN(C)c1ccc(N=Nc2ccc(S(=O)(=O)[O-])cc2)cc1.[Na+]` [Compound 14, Methyl Orange (Orange III)], the “M: experimental Mlog(1/MRC50)” value is reported as 3.74.
With `O=S(=O)([O-])c1ccc(N=Nc2c(O)ccc3ccccc23)cc1.[Na+]` [Compound 28, Acid Orange 7] the “M: experimental Mlog(1/MRC50)” value was 3.17.
In the case of `Cc1ccc(N=Nc2c(O)c(S(=O)(=O)[O-])cc3cc(S(=O)(=O)[O-])ccc23)c(C)c1.[Na+].[Na+]` [Compound 38, Acid Red 26 (Ponceau Xilidine)], the “M: experimental Mlog(1/MRC50)” value is reported as 4.06.
For `O=S(=O)([O-])c1ccc2c(N=Nc3ccccc3[As](=O)(O)O)c(O)c(S(=O)(=O)[O-])cc2c1.[Na+].[Na+]` [Compound 40, Thorin], the “M: experimental Mlog(1/MRC50)” value was 3.46.
With `O=S(=O)([O-])c1cc(O)c2c(O)c(N=Nc3ccccc3)c(S(=O)(=O)[O-])cc2c1.[Na+].[Na+]` [Compound 41, Acid Red 29 (Chromotrope 2R)] the “M: experimental Mlog(1/MRC50)” value was 3.65.
With `CC(=O)Nc1cc(S(=O)(=O)[O-])cc2cc(S(=O)(=O)[O-])c(N=Nc3ccccc3)c(O)c12.[Na+].[Na+]` [Compound 42, Acid Red 1 (Azophloxin)] the “M: experimental Mlog(1/MRC50)” value was 3.66.
With `CC(=O)Nc1cc(S(=O)(=O)[O-])cc2cc(S(=O)(=O)[O-])c(N=Nc3ccccc3C)c(O)c12.[Na+].[Na+]` [Compound 43, Acid Red 35] the “M: experimental Mlog(1/MRC50)” value was 3.63.
For `O=S(=O)([O-])c1ccc(N=Nc2c(O)ccc3ccccc23)c2ccccc12.[Na+]` [Compound 56, Acid Red 88 (Fast Red AV)], the “M: experimental Mlog(1/MRC50)” value was 3.31.
For `O=S(=O)([O-])c1ccc2c(N=Nc3ccc(S(=O)(=O)[O-])c4ccccc34)c(O)c(S(=O)(=O)[O-])cc2c1.[Na+].[Na+].[Na+]` [Compound 57, Acid Red 27 (Amaranth, Food Red 9)], the “M: experimental Mlog(1/MRC50)” value was 2.33.
`O=[N+]([O-])c1ccc2c(N=Nc3ccc4ccccc4c3O)c(O)cc(S(=O)(=O)[O-])c2c1.[Na+]` [Compound 58, Eriochrom Black T] was tested, and the “M: experimental Mlog(1/MRC50)” value was 4.13.
In the case of `Cl.Cl.Nc1ccc(N=Nc2cccc(N=Nc3ccc(N)cc3N)c2)c(N)c1` [Compound 60, Bismark Brown Y (Vesuvin)], the “M: experimental Mlog(1/MRC50)” value is reported as 3.87.
In the case of `Cc1ccccc1/N=N/c1ccc(/N=N/c2c(O)ccc3ccccc23)c(C)c1` [Compound 63, Sudan IV (Scarlet Red)], the “M: experimental Mlog(1/MRC50)” value is reported as 3.05.
In the case of `Cc1cccc(N=Nc2ccc(N=Nc3c(O)ccc4ccccc34)cc2C)c1` [Compound 64, Solvent Red 25 (Sudan Red B)], the “M: experimental Mlog(1/MRC50)” value is reported as 3.42.
`Oc1ccc2ccccc2c1N=Nc1ccc(N=Nc2ccccc2)cc1` [Compound 65, Solvent Red 23 (Sudan III, Sudan V)] was tested, and the “M: experimental Mlog(1/MRC50)” value was 3.64.
`O=S(=O)([O-])c1ccc(N=Nc2ccc(N=Nc3c(O)ccc4ccccc34)c(S(=O)(=O)[O-])c2)cc1.[Na+].[Na+]` [Compound 68, Acid Red 66 (Biebrischer Scharlach)] was tested, and the “M: experimental Mlog(1/MRC50)” value was 3.95.
In the case of `O=S(=O)([O-])c1ccc(N=Nc2ccc(N=Nc3c(O)c(S(=O)(=O)[O-])cc4cc(S(=O)(=O)[O-])ccc34)c(S(=O)(=O)[O-])c2)cc1.[Na+].[Na+].[Na+].[Na+]` [Compound 69, Ponceau S], the “M: experimental Mlog(1/MRC50)” value is reported as 3.97.
`Nc1c(N=Nc2ccc([N+](=O)[O-])cc2)c(S(=O)(=O)[O-])cc2cc(S(=O)(=O)[O-])c(N=Nc3ccccc3)c(O)c12.[Na+].[Na+]` [Compound 74, Acid Black 1 (Amido Black 10B)] was tested, and the “M: experimental Mlog(1/MRC50)” value was 4.33.
In the case of `Nc1c(N=Nc2ccc([N+](=O)[O-])cc2)c(S(=O)(=O)[O-])cc2cc(S(=O)(=O)[O-])c(N=Nc3ccccc3)c(O)c12.[Na+].[Na+]` [Compound 75, Acid Black 1 (Salt)], the “M: experimental Mlog(1/MRC50)” value is reported as 4.41.
With `CC1(C)Nc2cccc3c(N=Nc4ccc(N=Nc5ccccc5)c5ccccc45)ccc(c23)N1` [Compound 80, Sudan Black B (Solvent Black 3)] the “M: experimental Mlog(1/MRC50)” value was 4.20.
In the case of `Nc1ccc(N=Nc2ccc(-c3ccc(N=Nc4c(S(=O)(=O)[O-])cc5cc(S(=O)(=O)[O-])c(N=Nc6ccccc6)c(O)c5c4N)cc3)cc2)c(N)c1.[Na+].[Na+]` [Compound 83, Direct Black 38], the “M: experimental Mlog(1/MRC50)” value is reported as 4.26.
`O=S(=O)([O-])c1cc(N=Nc2c(O)ccc3ccccc23)ccc1-c1ccc(N=Nc2c(O)ccc3ccccc23)cc1S(=O)(=O)[O-].[Na+].[Na+]` [Compound 87, Acid Red 97] was tested, and the “M: experimental Mlog(1/MRC50)” value was 4.11.

Same assay, conditions: even at a concentration of 0.11 mol/L
For `O=C([O-])C1=NN(c2ccc(S(=O)(=O)[O-])cc2)C(=O)C1N=Nc1ccc(S(=O)(=O)[O-])cc1.[Na+].[Na+].[Na+]` (centres unmarked) [Compound 55, Acid Yellow 23 (Tartrazine, Food Yellow 4)], the toxicity was “not toxic at all”.

Same assay, conditions: parent dye, Table 2
In the case of `CN(C)c1ccc(N=Nc2ccc(S(=O)(=O)[O-])cc2)cc1.[Na+]` [Compound 14, Methyl Orange (Orange III)], the “F(1+2+...)e experimental toxicity log(1/MRC50)” value is reported as 3.74.

Same assay, conditions: product of enzymatic reduction/hydrolysis of the dye
For 2-Aminocresol, the “F(1), F(2),... individual log(1/MRC50) toxicity value” was 3.21.
`Nc1ccc(/C=C/c2ccc(N)cc2S(=O)(=O)O)c(S(=O)(=O)O)c1` [ADASDS, diaminostilbene disulfonic acid] was tested, and the “F(1), F(2),... individual log(1/MRC50) toxicity value” was 3.43.
In the case of `Nc1ccc(S(=O)(=O)O)cc1` [APABS, p-aminobenzenesulfonic acid], the “F(1), F(2),... individual log(1/MRC50) toxicity value” is reported as 2.81.

Same assay, conditions: same column as M
In the case of `O=C([O-])C1=NN(c2ccc(S(=O)(=O)[O-])cc2)C(=O)C1N=Nc1ccc(S(=O)(=O)[O-])cc1.[Na+].[Na+].[Na+]` (centres unmarked) [Compound 55, Acid Yellow 23 (Tartrazine, Food Yellow 4)], the “M: experimental toxicity (class word)” value is reported as “NOTE”.
